ChEMBL document CHEMBL2073858, “Cloning and characterization of a pH-sensing regulatory factor that modulates transport activity of the human H+/peptide cotransporter, PEPT1” (Biochem Biophys Res Commun, 1997)
Square brackets hold non-standard residues; d marks the D form. Peptide text beside a SMILES is read from it. Sar = CNCC(=O)O

Target: T1, Solute carrier family 15 member 1 (Homo sapiens) (UniProt P46059)
T1 sequence (whole entry): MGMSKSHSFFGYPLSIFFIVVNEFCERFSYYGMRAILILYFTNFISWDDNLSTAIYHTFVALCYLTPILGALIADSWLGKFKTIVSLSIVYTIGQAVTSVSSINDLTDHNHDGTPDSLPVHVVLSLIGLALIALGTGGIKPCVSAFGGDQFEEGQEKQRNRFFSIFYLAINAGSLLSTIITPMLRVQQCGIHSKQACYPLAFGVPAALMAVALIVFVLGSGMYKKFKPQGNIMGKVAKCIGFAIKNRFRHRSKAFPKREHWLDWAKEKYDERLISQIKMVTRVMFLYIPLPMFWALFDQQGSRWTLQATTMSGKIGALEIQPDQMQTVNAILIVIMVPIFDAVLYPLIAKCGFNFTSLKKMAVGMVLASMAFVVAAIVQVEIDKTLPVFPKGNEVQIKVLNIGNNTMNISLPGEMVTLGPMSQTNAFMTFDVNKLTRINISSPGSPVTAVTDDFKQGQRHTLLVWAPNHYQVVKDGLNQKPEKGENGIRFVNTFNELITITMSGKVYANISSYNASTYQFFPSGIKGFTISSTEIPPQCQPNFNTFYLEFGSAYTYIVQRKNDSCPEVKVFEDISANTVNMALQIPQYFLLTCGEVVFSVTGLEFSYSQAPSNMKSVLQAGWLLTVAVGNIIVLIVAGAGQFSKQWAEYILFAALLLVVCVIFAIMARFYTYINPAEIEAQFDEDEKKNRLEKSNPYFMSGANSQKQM
Assay: TP_TRANSPORTER: uptake in Xenopus laevis oocytes
Assay type: functional, cell-based
Details: Oocyte

## CN(CC(=O)O)C(=O)CN (H-Gly-[Sar]-OH)
  Activity: substrate [+]
